Experimental data as given in patent US9242015B2, “Development and screening of contrast agents for in vivo imaging of Parkinson's disease” (The General Hospital Corporation, priority 2010, dated 2016).

How the values were obtained:
[1] = molecular target: T1, Lewy bodies (Homo sapiens, UniProt P37840); experiment: Staining of Lewy bodies in post-mortem DLB/PD midbrain tissue; on staining on a LB (FIG. 2): key: positive staining with high contrast (++); positive staining with low contrast (+); negative staining (−); assay type: binding; settings: for Lewy Bodies Contrast: DLB/PD post-mortem midbrain tissue, dyes in PBS at 500 nM, 5 μM for 30 minutes; for staining on a LB (FIG. 2): DLB post-mortem midbrain tissue
T1 construct: Post-mortem midbrain tissue from DLB and PD patients was obtained from the HBTRC Brain Bank at McLean Hospital; tissue HBTRC Brain Bank at McLean Hospital; host or cells: formalin-fixed post-mortem human midbrain (DLB and PD patients)
Protocol: (§3) Post-mortem midbrain tissue from DLB and PD patients was obtained from the HBTRC Brain Bank at McLean Hospital. Tissue was fixed with formalin and immuno-stained with H3C primary antibody for synuclein and Alexa488 or Cy5 (not shown) conjugated secondary antibody. Immuno-stained tissue was incubated with fluorescent dyes in PBS at concentrations of 500 nM, 2 μM, and 5 μM for 30 minutes. Slides of tissue were imaged with Olympus Microscope at 60× with appropriate filter set.

[2] = molecular target: T2, Lewy neurites (Homo sapiens, UniProt P37840); experiment: Staining of Lewy neurites in post-mortem DLB/PD midbrain tissue; on all read-outs here: key: positive staining with high contrast (++); positive staining with low contrast (+); negative staining (−); assay type: binding; settings: for Lewy Neurites Contrast: DLB/PD post-mortem midbrain tissue, dyes in PBS at 500 nM, 5 μM for 30 minutes; for staining on a LN (FIG. 2): DLB post-mortem midbrain tissue
T2 construct: Post-mortem midbrain tissue from DLB and PD patients was obtained from the HBTRC Brain Bank at McLean Hospital; tissue HBTRC Brain Bank at McLean Hospital; host or cells: formalin-fixed post-mortem human midbrain (DLB and PD patients)
Protocol: as §3

[3] = system: AD Plaque; experiment: Staining of plaques in AD temporal lobe sections; assay type: binding, human; settings: 5 μM dye in PBS; further: key: positive (+) staining for both plaques and tangles; did not bind (−) AD pathology
Protocol: (§1) Paraffin-embedded formalin-fixed tissue from the temporal lobe of AD patients was obtained through the MA ADRC Brain Bank. Sections were stained with 0.05% Thio S to visualize plaques and NFT. Tissue was then stained with 5 μM dye in PBS. Slides were imaged on an Olympus Microscope at 20×, with a GFP emission filter for Thio S, and appropriate emission ranges for the dyes.

[4] = system: AD NFT; experiment: Staining of neurofibrillary tangles (NFT) in AD temporal lobe sections; assay type: binding, human; settings: 5 μM dye in PBS; further: key: positive (+) staining for both plaques and tangles; did not bind (−) AD pathology
Protocol: as §1

[5] = Log P
[6] = PD/APP transgenic mouse (18 mo), tail vein, 10 mg/kg, multi-photon microscope; cited from earlier work
[7] = Blood-brain barrier crossing by in vivo fluorescence imaging after IV injection; settings: for BBB Crossing: mouse, in vivo
Excerpt: (§2) Wide field fluorescence images were taken with a CCD camera on an Olympus microscope.
Images were taken with a BIO-RAD MRC1024 multi-photon microscope.
as §2

CCN(CC)c1ccc2nc3c4ccccc4c(=O)cc-3oc2c1 [Nile Red, 9-diethylamino-5-benzo[α]phenoxazinone]
Lewy Bodies Contrast ([1]; 2 μM): +
Lewy Neurites Contrast ([2]; 2 μM): −
AD Plaque Contrast [3]: −
AD NFT Contrast [4]: −
logP [5]: 3.51

CC[n+]1ccc(C=CC=Cc2ccc(N(C)C)cc2)cc1.[O-][Cl+3]([O-])([O-])[O-] [LDS 722, 4-[4-[4-(dimethylamino)phenyl]-1,3-butadienyl]-1-ethyl-pyridinium perchlorate]
staining on a LB (FIG. 2) ([1]; 2 μM): ++
Lewy Bodies Contrast ([1]; 2 μM): + +
staining on a LN (FIG. 2) ([2]; 2 μM): ++
Lewy Neurites Contrast ([2]; 2 μM): +
AD Plaque Contrast [3]: + +
AD NFT Contrast [4]: + +
logP [5]: 1.04

[11CH3]Nc1ccc(-c2nc3ccc(O)cc3s2)cc1 [PiB]
time to cross the BBB after IV injection [6]: ≤ 1 min

CCN(CC)c1ccc2nc3c(cc(N)c4ccccc43)[o+]c2c1.[O-][Cl+3]([O-])([O-])[O-] [Nile Blue 690 ClO4, 5-amino-9-(diethylamino)-benzo[a]phenoxazin-7-ium perchlorate]
Lewy Bodies Contrast ([1]; 2 μM): + +
Lewy Neurites Contrast ([2]; 2 μM): −
AD Plaque Contrast [3]: −
AD NFT Contrast [4]: −

CCN1C(=CC=CC=Cc2sc3ccccc3[n+]2CC)Sc2ccccc21.[I-] [3-3′-DTDCI, 3,3′-diethylthiadicarbocyanine iodide]
Lewy Bodies Contrast ([1]; 2 μM): +
Lewy Neurites Contrast ([2]; 2 μM): −
AD Plaque Contrast [3]: +
AD NFT Contrast [4]: −
BBB Crossing [7]: −

O=S(=O)([O-])c1ccccc1C=Cc1ccc(-c2ccc(C=Cc3ccccc3S(=O)(=O)[O-])cc2)cc1.[Na+].[Na+] [Stilbene 420, 2,2″-([1,1′-biphenyl]-4.4′-diyldi-2,1-ethenediyl)bis-benzenesulfonic acid disodium salt]
Lewy Bodies Contrast ([1]; 2 μM): + +
Lewy Neurites Contrast ([2]; 2 μM): +
AD NFT Contrast [4]: +

O=C1NC(=S)NC(=O)C1=C/C=C/C=C/c1c(O)[nH]c(=S)[nH]c1=O [THK-265]
Lewy Bodies Contrast ([1]; 2 μM): +
Lewy Neurites Contrast ([2]; 2 μM): −
AD Plaque Contrast [3]: +
AD NFT Contrast [4]: −
BBB Crossing [7]: −

4-[4-[4-(dimethylamino)phenyl]-1,3-butadienyl]-1-ethyl quinolinium [LDS 798]
Lewy Bodies Contrast ([1]; 2 μM): + +
Lewy Neurites Contrast ([2]; 2 μM): −
AD Plaque Contrast [3]: −
AD NFT Contrast [4]: −
BBB Crossing [7]: +
BBB crossing (wide field fluorescence time course) ([7]; wildtype mouse, IV, 10 mg/kg in 6% DMSO and 1×PBS): crosses BBB and rapidly enters brain
Log P [5]: 1.8

CCN=c1cc2oc3c4c5c(cc3nc-2c2ccccc12)CCCN5CCC4 [Oxazine 750, reference compound]
staining on a LB (FIG. 2) ([1]; 5 μM): −
staining on a LN (FIG. 2) ([2]; 5 μM): −

CN1C(=CC=CC=CC=CC2=[N+](C)c3ccccc3C2(C)C)C(C)(C)c2ccccc21.[O-][Cl+3]([O-])([O-])[O-] [HITC ClO4, 2-[7-(1,3-dihydro-1,3,3-trimethyl-2H-indol-2-ylidene)-1,3,5-heptatrienyl]-1,3,3-trimethyl-3H-indolium perchlorate]
Lewy Bodies Contrast ([1]; 2 μM): +
Lewy Neurites Contrast ([2]; 2 μM): −
AD Plaque Contrast [3]: −
AD NFT Contrast [4]: −

CN(C)c1ccc(C=CC=CC2=[N+](C)c3ccccc3C2(C)C)cc1.[O-][Cl+3]([O-])([O-])[O-] [LDS 730, 2-[4-[4-(dimethylamino)phenyl]-1,3-butadienyl]-1,3,3-trimethyl-3H-indolium perchlorate]
Lewy Bodies Contrast ([1]; 2 μM): +
Lewy Neurites Contrast ([2]; 2 μM): −
AD NFT Contrast [4]: +
